molecular target: HPK full length, T165E S171E (Homo sapiens (Human), UniProt Q92918, S171E/T165E); assay: HPK1-FL HTRF enzymatic assay ("HTRF"); format: biochemical; conditions: ATP 1 mM, read-out: HPK1 Ki
Procedure, shortened: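 Full-length HPK1 (T165E/S171E) was preincubated 30 min with compound, then reacted 60 min with biotin-SLP-76 and 1 mM ATP. Phospho-SLP-76 was detected by HTRF (Eu-anti-pSLP76 antibody, SA-XL665) after a further 60 min.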

Chain of HPK full length, T165E S171E (Q92918 whole entry T165E/S171E, looked up): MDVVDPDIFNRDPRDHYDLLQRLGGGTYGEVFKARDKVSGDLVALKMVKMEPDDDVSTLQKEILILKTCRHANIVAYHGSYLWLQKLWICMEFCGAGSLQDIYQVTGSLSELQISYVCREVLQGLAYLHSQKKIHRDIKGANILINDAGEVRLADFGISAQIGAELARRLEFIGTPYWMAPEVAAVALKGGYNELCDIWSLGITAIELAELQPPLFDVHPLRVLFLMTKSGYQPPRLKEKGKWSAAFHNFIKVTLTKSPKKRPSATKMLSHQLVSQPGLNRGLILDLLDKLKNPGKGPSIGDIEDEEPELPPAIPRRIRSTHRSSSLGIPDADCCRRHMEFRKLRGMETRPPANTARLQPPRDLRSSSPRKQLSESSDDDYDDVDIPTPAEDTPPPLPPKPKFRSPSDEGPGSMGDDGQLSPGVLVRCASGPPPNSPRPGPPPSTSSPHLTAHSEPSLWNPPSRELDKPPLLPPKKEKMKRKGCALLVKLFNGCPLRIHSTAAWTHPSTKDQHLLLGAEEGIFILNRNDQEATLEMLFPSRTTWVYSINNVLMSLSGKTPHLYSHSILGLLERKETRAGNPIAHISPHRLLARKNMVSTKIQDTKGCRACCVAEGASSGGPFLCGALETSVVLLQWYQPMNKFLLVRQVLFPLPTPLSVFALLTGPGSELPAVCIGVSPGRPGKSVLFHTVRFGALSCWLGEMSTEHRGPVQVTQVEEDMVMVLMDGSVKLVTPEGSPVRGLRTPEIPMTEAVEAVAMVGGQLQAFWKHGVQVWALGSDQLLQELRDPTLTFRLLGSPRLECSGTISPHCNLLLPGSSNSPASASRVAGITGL

SMILES | Ki
Cc1c(-c2cc3cc(NC(=O)OC4CCN(C)CC4)ncc3c(N)c2F)cnc2c1NCCO2 [Compound 407, 1-Methylpiperidin-4-yl (8-amino-7-fluoro-6-(8-methyl-2,3-dihydro-1H-pyrido[2,3-b][1,4]oxazin-7-yl)isoquinolin-3-yl)carbamate] | 0.03 nM
Cc1c(-c2cc3cc(NC(=O)O[C@H]4CCC(=O)N(C)C4)ncc3c(N)c2F)cnc2c1NCCO2 [Compound 409a, (S)-1-Methyl-6-oxopiperidin-3-yl (8-amino-7-fluoro-6-(8-methyl-2,3-dihydro-1H-pyrido[2,3-b][1,4]oxazin-7-yl)isoquinolin-3-yl)carbamate] | 0.053 nM
Cc1c(-c2cc3cc(NC(=O)O[C@@H]4CCN(C)C4)ncc3c(N)c2F)cnc2c1NCCO2 [Compound 411b, (R)-1-Methylpyrrolidin-3-yl (8-amino-7-fluoro-6-(8-methyl-2,3-dihydro-1H-pyrido[2,3-b][1,4]oxazin-7-yl)isoquinolin-3-yl)carbamate] | 0.2 nM
Cc1c(-c2cc3cc(NC(=O)OC4CCOCC4)ncc3c(N)c2F)cnc2c1NCCC2O (stereo not drawn) [Compound 413, Tetrahydro-2H-pyran-4-yl (8-amino-7-fluoro-6-(8-hydroxy-4-methyl-5,6,7,8-tetrahydro-1,5-naphthyridin-3-yl)isoquinolin-3-yl)carbamate] | 0.65 nM
Cc1c(-c2cc3cc(NC(=O)O[C@H]4CCCN(C)C4)ncc3c(N)c2F)cnc2c1NCCO2 [Compound 416b, (5)-1-Methylpiperidin-3-yl (8-amino-7-fluoro-6-(8-methyl-2,3-dihydro-1H-pyrido[2,3-b][1,4]oxazin-7-yl)isoquinolin-3-yl)carbamate] | 0.075 nM
Cc1c(-c2cc3cc(NC(=O)OC4CC5(C4)CN(C)C5)ncc3c(N)c2F)cnc2c1NCCO2 [Compound 417, 2-Methyl-2-azaspiro[3.3]heptan-6-yl (8-amino-7-fluoro-6-(8-methyl-2,3-dihydro-1H-pyrido[2,3-b][1,4]oxazin-7-yl)isoquinolin-3-yl)carbamate] | < 0.013 nM
Cc1c(-c2cc3cc(NC(=O)OC4CN(C(C)C)C4)ncc3c(N)c2F)cnc2c1NCCO2 [Compound 419, (1-Isopropylazetidin-3-yl) N-[8-amino-7-fluoro-6-(8-methyl-2,3-dihydro-1H-pyrido[2,3-b][1,4]oxazin-7-yl)-3-isoquinolyl]carbamate] | 0.061 nM
Cc1c(-c2cc3cc(NC(=O)OC4CN(CC(F)(F)F)C4)ncc3c(N)c2F)cnc2c1NCCO2 [Compound 420, 1-(2,2,2-Trifluoroethyl)azetidin-3-yl (8-amino-7-fluoro-6-(8-methyl-2,3-dihydro-1H-pyrido[2,3-b][1,4]oxazin-7-yl)isoquinolin-3-yl)carbamate] | < 0.013 nM
Cc1c(-c2cc3cc(NC(=O)OC4CCN(C5COC5)CC4)ncc3c(N)c2F)cnc2c1NCCO2 [Compound 421, 1-(Oxetan-3-yl)piperidin-4-yl (8-amino-7-fluoro-6-(8-methyl-2,3-dihydro-1H-pyrido[2,3-b][1,4]oxazin-7-yl)isoquinolin-3-yl)carbamate] | < 0.013 nM
Cc1c(-c2cc3cc(NC(=O)OC4CCN(CC(F)(F)F)CC4)ncc3c(N)c2F)cnc2c1NCCO2 [Compound 422, 1-(2,2,2-Trifluoroethyl)piperidin-4-yl (8-amino-7-fluoro-6-(8-methyl-2,3-dihydro-1H-pyrido[2,3-b][1,4]oxazin-7-yl)isoquinolin-3-yl)carbamate] | 0.023 nM
Cc1c(-c2cc3cc(NC(=O)OC4CC5(CCN(C)CC5)C4)ncc3c(N)c2F)cnc2c1NCCC2 [Compound 423, (7-Methyl-7-azaspiro[3.5]nonan-2-yl) N-[8-amino-7-fluoro-6-(4-methyl-5,6,7,8-tetrahydro-1,5-naphthyridin-3-yl)-3-isoquinolyl]carbamate] | < 0.013 nM
CC(=O)N1CC2(CC(OC(=O)Nc3cc4cc(-c5cnc6c(c5C)NCCO6)c(F)c(N)c4cn3)C2)C1 [Compound 424, 2-Acetyl-2-azaspiro[3.3]heptan-6-yl (8-amino-7-fluoro-6-(8-methyl-2,3-dihydro-1H-pyrido[2,3-b][1,4]oxazin-7-yl)isoquinolin-3-yl)carbamate] | < 0.013 nM

Source: patent US11612606B2, “8-aminoisoquinoline compounds and uses thereof” (priority 2018, dated 2023)
